Laboratory results from the NIST ThermoML archive (doi:10.1021/je0504358).

Conditions: Liquid, Twin ebulliometer

O=C1C=CCCC1 [2-cyclohexen-1-one]
Conditions	vapor or sublimation pressure [kPa]
350.4 K	4.147
353.66 K	4.786
357.56 K	5.662
361.48 K	6.709
366.16 K	8.095
370.32 K	9.581
374.97 K	11.46
379 K	13.31
380.5 K	14.06
386.63 K	17.53
388.4 K	18.68
391.77 K	20.95
397.16 K	25.2
404.53 K	32.03
407.95 K	35.56
410.86 K	39.01
424.23 K	57.64
445 K	100.4

CC1CCCCC1=O (stereo unspecified) [2-methylcyclohexanone]
Conditions	vapor or sublimation pressure [kPa]
338.76 K	3.333
342.2 K	3.912
348.85 K	5.267
350.96 K	5.763
353.34 K	6.401
355.93 K	7.129
358.53 K	7.941
360.73 K	8.678
363.09 K	9.543
366.66 K	10.98
369.65 K	12.3
372.7 K	13.79
376.36 K	15.79
381.72 K	19.12
384.91 K	21.37
389.42 K	24.9
394.59 K	29.53
398.32 K	33.29
399.98 K	35.05
408.17 K	45.03
411.64 K	49.98
414 K	53.52
418.28 K	60.46
436.94 K	99.71

CCCCCC=O [hexanal]
Conditions	vapor or sublimation pressure [kPa]
322.27 K	5.184
325.43 K	6.001
327.84 K	6.711
330.22 K	7.51
333.56 K	8.713
338.89 K	10.99
342.12 K	12.59
347.22 K	15.55
353.44 K	19.8
360.11 K	25.45
366.28 K	31.91
371.95 K	38.88
377.98 K	47.56
402.17 K	99.72
